Data from patent publication US20250120963A1, “METHODS AND COMPOSITIONS FOR THE TREATMENT OF THROMBOCYTOPENIA” (THE CHILDREN'S MEDICAL CENTER CORPORATION, priority 2023, published 2025).

Experiments:
mice [1] = test system: mice
Protocol: Mice were given Niraparib (25 mg/kg, intraperitoneal) or vehicle control for 11 days. FIG. 5A) Platelet counts and immature platelet fraction were measured on a SYSMEX™ hematology analyzer. Line graph: Black circles=Vehicle, gray squares=Niraparib. Bar charts: black=Vehicle, gray=Niraparib. FIG. 5B) MKs and MK-biased HSC counts. Dark gray=DMSO (vehicle), light gray=Niraparib. FIG. 5C) expression of γH2AX. Left bar=control, right bar=Niraparib, and FIG. 5D) MK ploidy was determined by flow cytometry (see FIGS. 9A-9C). n=4-5 mice per group. Gray=Niraparib, black=Vehicle.
Mice were treated with a subtherapeutic dosage of the PARP inhibitor Niraparib (25 mg/kg, intraperitoneal) or saline control for 11 days. The dosing schedule was as follows: 5 consecutive days of Niraparib treatment followed by 2 days of drug holiday (no injection), then 4 more consecutive days of Niraparib treatment. Mice were sacrificed on day 11. Platelet counts were taken on days 0 (pre-treatment), 2, 7, 9, and 11. Cohorts of mice were sacrificed on days 3 and 11 for quantification of bone MK and progenitor populations. […] To.
Niraparib treatment were measured.

[2] = test system: MKs in calvaria bone marrow of vWF-GFP reporter mice; details: 25 mg/kg, 7 days, vs DMSO
Protocol: (§1) While MK ploidy is not directly causative of platelet production, higher ploidy MKs are associated with increased platelet production and ploidy status is indicative of more terminal MK maturation. To look further at live MKs, 2-photon intravital microscopy (2PIVM) was performed in the calvaria of vWF-GFP reporter mice (MKs and platelets are GFP+) treated with 25 mg/kg Niraparib or vehicle control DMSO for 7 days. Mice were anesthetized and a window in the calvaria was made to view the exposed bone marrow.

platelets = platelets drawn on D11, 25 mg/kg; stimulated with ADP, TRAP or CRP; listed as niraparib
Protocol: Platelets were drawn from mice at sacrifice on D11 (see FIG. 6), stimulated with agonists as indicated, and the MFI of activated αIIbβ3 measured by flow cytometry. Black markers=saline, gray markers=Niraparib, 25 mg/kg.
Platelets were drawn from mice at sacrifice on D11, stimulated with agonists as indicated, and the MFI of activated αIIbβ3 measured by flow cytometry. Black=saline, gray=Niraparib (25 mg/kg).
as §1
Platelets were drawn from mice at sacrifice on D11, stimulated with agonists as indicated, and the MFI of activated αIIbβ3 measured by flow cytometry.

[3] = test system: lineage depleted murine bone marrow; assay: In vitro megakaryocyte differentiation: lineage depleted bone marrow cultured with TPO for 4 days with PARPi (VWF-GFP signal); type: cell-based; details: for megakaryocyte differentiation / megakaryopoiesis in vitro: TPO, 4 days, PARPi vs vehicle
Protocol: Lineage depleted bone marrow was cultured with TPO for 4 days in the presence of PARPi or vehicle controls. FIG. 14A) representative images of VWF-GFP signal. FIG. 14B) Mean normalized area of GFP signal (n=3). Error bars±SEM.Circles=Olaparib, squares=Niraparib, triangles=Rucaparib.
Lineage depleted bone marrow was cultured with TPO for 4 days in the presence of PARPi or vehicle controls (FIG. 14A-14B).
Lineage depleted murine bone marrow was cultured with TPO for 4 days in the presence of PARPi or vehicle controls (FIG. 14A-14B).

[4] = 0.03 μM vs vehicle
mice [5] = details: 50 mg/kg daily i.p.; Niraparib 10 days, Olaparib 3 days
Protocol: Mice were treated with 50 mg/kg Niraparib or Olaparib daily (i.p.) for 10 or 3 days, respectively, and platelet counts measured by SYSMEX™.
FIG. 21A) Platelet count versus time. FIG. 21B) RBC count versus time. FIG. 21C) WBC count versus time.
8,9 Mice were treated with 50 mg/kg of Niraparib and Olaparib […].

C57B1/6 mice = assay: Olaparib 50 mg/kg i.p. 5 consecutive days each week in C57B1/6 mice, 2-week and 4-week experiments; type: in vivo
Protocol: C57B1/6 mice dosed with 50 mg/kg Olaparib intraperitoneally for 5 days consecutive days each week. Dark gray=vehicle, light gray=Olaparib.
Olaparib treatment increases platelet count and alters megakaryocyte ploidy in mice. C57B1/6 mice were dosed with 50 mg/kg Olaparib intraperitoneally for 5 days consecutive days each week.

[6] = test system: PARylation in megakaryocytes; assay: PARylation western blot in megakaryocytes subjected to hydrogen peroxide with or without Olaparib; type: cell-based, murine; details: 10 mM H2O2; Olaparib 30 μM or 3 μM
Protocol: (§2) Lineage depleted murine bone marrow was cultured with TPO for 4 days. Gradient-isolated megakaryocytes subjected to 10 mM of hydrogen peroxide (H2O2) in the presence or absence of Olaparib (30 μM or 3 μM). Cells were subsequently lysed in RIPA buffer containing protease inhibitor cocktail. A western blot to detect PARylation was performed. Equal loading was confirmed using an anti-GAPDH antibody. Impage shown is a representative of three experiments.
as §2, with “megakaryocytes were” for “megakaryocytes”, “olaparib” for “Olaparib”, “performed (FIG. 18).” for “performed.”, “antibody.” for “antibody. Impage shown is a representative of three experiments.”

patients = details: ITP patients; cited from earlier work

Molecule: NC(=O)c1cccc2cn(-c3ccc([C@@H]4CCCNC4)cc3)nc12 [Niraparib, 2-{4-[(3S)-Piperidin-3-yl]phenyl}-2H-indazole-7-carboxamide]
- number of MK-committed HSCs positive for γH2AX (mice [1]; 25 mg/kg i.p.): significantly increased
- γH2AX-positive MKPs (mice [1]; 25 mg/kg i.p.): trend to more
- 2N MKs (mice [1]; 25 mg/kg i.p., 11 days): almost no 2N MKs
- number of 32N MKs (mice [1]; 25 mg/kg i.p., 11 days): large increase
- MK number / MK counts (mice [1]; 25 mg/kg i.p., bone marrow, flow cytometry, listed as niraparib): increases
- MK-committed HSCs (CD41+LT-HSCs) counts (mice [1]; 25 mg/kg i.p., days preceding the increase in platelet counts): significant increase
- immature platelet fraction (mice [1]; 25 mg/kg i.p., from day 7, vs saline): significant increase
- platelets, percent of normal levels (mice [1]; Niraparib treated mice): > 150 % of normal levels
- MKs in day 3 HSPC/myeloid panel (mice [1]; day 3, committed progenitors and classical hematopoiesis pathways): Significant increase in MKs
- day 11 HSPC/myeloid panel: HSC status (mice [1]; day 11): HSC exhaustion
- megakaryopoiesis (mice [1]; lower doses of niraparib): increase in megakaryopoiesis
- time to significant increase in mouse platelet count (mice [1]; lower doses of niraparib, from initial administration): ≤ 7 days
- DNA damage accumulation in megakaryocytes, γH2AX immunofluorescence on long bones (mice [1]; niraparib group): Increased DNA damage accumulation
- MK number in bone marrow by 2-photon intravital microscopy [2]: increased MK number
- platelet function / activation (platelets): does not affect platelet function
- megakaryocyte differentiation / megakaryopoiesis in vitro [3]: reduce megakaryocyte differentiation
- megakaryocyte maturation in vitro at higher doses ([3]; lineage depleted bone marrow cells from WT mice, higher doses): decreased maturation
- megakaryocyte maturation in vitro at lower doses ([3]; lineage depleted bone marrow cells from WT mice, lower doses): increased megakaryocyte maturation
- ploidy in vitro [4]: increases ploidy

Molecule: O=C(c1cc(Cc2n[nH]c(=O)c3ccccc23)ccc1F)N1CCN(C(=O)C2CC2)CC1 [Olaparib, 4-[(3-[(4-cyclopropylcarbonyl)piperazin-4-yl]carbonyl)-4-fluorophenyl]methyl (2H) phthalazin-1-one]
- platelet counts at 50 mg/kg (mice [5]): severe thrombocytopenia
- platelet counts after day 6 (C57B1/6 mice; 2-week and 4-week experiments): returned to approximately baseline
- megakaryocyte ploidy shift after 2-weeks (C57B1/6 mice; 2 weeks): fewer 8N and more 32N cells
- number of megakaryocytes (CD41+CD42+ flow cytometry of bone marrow) at 2-weeks (C57B1/6 mice; 2 weeks): trend to fewer megakaryocytes
- megakaryocyte ploidy shift after 4-weeks (C57B1/6 mice; 4 weeks): more 8N and fewer 16N cells
- number of megakaryocytes (CD41+CD42+ flow cytometry of bone marrow) at 4-weeks (C57B1/6 mice; 4 weeks): trend to fewer megakaryocytes
- platelet count (C57B1/6 mice; increase found at day 6, 2-week and 4-week experiments): surprising increase in platelet count
- megakaryocyte differentiation / megakaryopoiesis in vitro [3]: reduce megakaryocyte differentiation
- megakaryocyte PARylation [6]: reverses PARylation pattern

Molecule: Rituximab: treatment for ITP patients, which can take 4-6 weeks for peak results
- time for peak results (patients): 4-6 weeks
